What is called EC50 is the midpoint of the concentration-response curve. For orientation: CC50 means the concentration at which the toxic effect on the cells reaches its halfway point.

Experimental findings from paper PMC11541474, “Toward New Therapeutics for Visceral Leishmaniasis: Efficacy and Mechanism of Action of Amides Inspired by Gibbilimbol B” (ACS Omega, 2024) are described below.

Series [1] relates to L. (L.) infantum promastigotes. Kind of series: in vitro activity against promastigote forms of L. (L.) infantum. The conditions noted are these: for EC50: Leishmania infantum, L. (L.) infantum promastigotes, read-out: Ec50 Promastigote (μm) ± SD. The class given is cell-based, Leishmania (L.) infantum. As for the experimental part:
(§1) Evaluation of in vitro activity against promastigote and amastigote forms of L. (L.) infantum was performed as previously reported assays.[40]−[43] The CC50 and EC50 values were calculated using sigmoidal dose–response curves using Graph Pad Prism 5.0 software. One-way ANOVA testing with Tukey’s multiple comparison tests were used for evaluation of the statistical significance (p-value) of differences between the samples, which were tested in duplicate and all assays were repeated at least twice.

Series [2] has as its system L. (L.) infantum intracellular amastigotes. The experiment in a line: ex-vivo assay using intracellular amastigotes of L. (L.) infantum. It counts as cell-based, Leishmania (L.) infantum. The settings on record: for EC50: Leishmania infantum, L. (L.) infantum intracellular amastigotes, read-out: Ec50 Amastigote (μm) ± SD; for S.I. amastigote (selectivity index): CC50 against NCTC cells/EC50 against amastigotes. As for the experimental part: as §1

The nature of series [3]: in vitro mammalian toxicity against NCTC cells. The class given is cell-based. The conditions noted are these: 50% cytotoxic concentration, read-out: Cc50 Nctc (μm) ± SD. As for the experimental part:
Evaluation of in vitro mammalian toxicity against NCTC cells was performed as previously described.[40] The selectivity index was determined using the following equation: CC50 against NCTC cells/EC50 against amastigotes.[44] The CC50 and EC50 values were calculated using sigmoidal dose–response curves using Graph Pad Prism 5.0 software. One-way ANOVA testing with Tukey’s multiple comparison tests were used for evaluation of the statistical significance (p-value) of differences between the samples, which were tested in duplicate and all assays were repeated at least twice.

The subject of series [4] is L. (L.) infantum promastigotes. It counts as cell-based, Leishmania (L.) infantum. The conditions noted are these: 9 at 141.5 μM, 10 at 110.1 μM, after 240 min. As for the experimental part:
Figure 5 Evaluation of ROS in promastigotes of L. (L.) infantum treated with compounds 9 (141.5 μM) or 10 (110.1 μM). […]
Measurements of ROS were conducted as previously reported.[48] Briefly, promastigotes were treated with compounds 9 (141.5 μM) or 10 (110.1 μM) in HBSS+Glu at 24 °C using H2DCFDA (Molecular Probes). Fluorescence was measured using a fluorimetric microplate reader (FilterMax F5Multi-Mode, Molecular Devices) with excitation and emission filters at 485 and 520 nm, respectively.[48] Untreated and treated parasites (H2O2 - 40 μM) were used as negative and positive controls, respectively.

Series [5] relates to L. (L.) infantum promastigotes. It counts as cell-based, Leishmania (L.) infantum. The text has this:
Changes in the plasma membrane integrity of Leishmania spp. can lead to cell death due to pore formation, pH imbalance, and nutrient-transport failure. Initially, the fluorescent probe Sytox Green was employed to analyze the permeability of the plasma membrane. […] Untreated parasites were used as a negative control for normalization (0% permeabilization) whereas the nonionic surfactant Triton X-100 was used for as positive control (100% permeabilization).
Figure 4 Plasma membrane permeability in L. (L.) infantum promastigotes after 4 h of treatment with compound (A) 9 (141.5 μM) or (B) 10 (110.1 μM), using the fluorescent probe Sytox Green (p < 0.0001). Negative control: untreated parasites; positive control: Triton X-100 (TX-100).
Assays for determination of plasma membrane integrity of L. (L.) infantum were conducted as previously reported.[46] Briefly, compounds 9 (141.5 μM) and 10 (110.1 μM) were added to different wells and the resulting fluorescence was measured using a fluorimetric microplate reader (FilterMax F5Multi-Mode, Molecular Devices). Triton X-100 (0.5%, v/v) and untreated parasites were used as positive negative controls, respectively.[47]

`CCC/C=C/CCCNC(=O)c1ccc(Cl)cc1` [Compound 5, (E)-4-Chloro-N-(oct-4-en-1-yl)benzamides]: the EC50 is 73.3 ± 4.3 µM in series [1] and greater than 100 µM in series [2]. The CC50 in series [3] was greater than 200 µM.
As to `CCC/C=C/CCCNC(=O)c1ccc(OC)cc1` [Compound 3, (E)-4-Methoxy-N-(oct-4-en-1-yl)benzamide], in series [1], the “activity against promastigotes (in words)” value is “inactive” and the EC50 was greater than 150 µM. Further, in series [2], the EC50 was greater than 100 µM. Further, in series [3], the CC50 is greater than 200 µM.
The like results for `CCC/C=C/CCCNC(=O)c1ccccc1` [Compound 1, (E)-N-(Oct-4-en-1-yl)benzamide] were, in that order, “inactive”, greater than 100 µM, greater than 100 µM and greater than 200 µM.
`CCC/C=C/CCCNC(=O)c1ccc(F)cc1` [Compound 4, (E)-4-Fluoro-N-(oct-4-en-1-yl)benzamide]: the EC50 in series [1] is 67.4 ± 1.3 µM; in series [2], greater than 100 µM. Also, the CC50 in series [3] is greater than 200 µM.
`[N-]=[N+]=[N-].[Na+]` [Sodium azide, reference compound]: the “ROS levels compared with negative control (H2DCFDA)” value in series [4] is given as “maximum production of ROS”.
Turning to `CCCCC(CC)CNC(=O)c1ccc(C)cc1` (centres unmarked) [Compound 11, N-(2-Ethylhexyl)-4-methylbenzamide], the EC50 in series [1] was 66.3 ± 6 µM; in series [2], greater than 100 µM. In addition, the CC50 in series [3] is greater than 200 µM.
The like results for `CCCCC(CC)CNC(=O)c1ccc(F)cc1` (centres unmarked) [Compound 8, N-(2-Ethylhexyl)-4-fluorobenzamide] were, in that order, 64.1 ± 3.5 µM, greater than 100 µM and 156.8 ± 1 µM.
With `CCCCC(CC)CNC(=O)c1ccc(C(C)(C)C)cc1` (centres unmarked) [Compound 12, N-(2-Ethylhexyl)-4-(tert-butyl)benzamide], in series [1], the “activity against promastigotes (in words)” value is “inactive” and the EC50 is greater than 150 µM. Further, in series [2], the “S.I. amastigote (selectivity index)” value is greater than 39.2 and the EC50 was determined as 5.1 ± 1.9 µM. The CC50 in series [3] was greater than 200 µM.
Consider `CCC/C=C/CCCNC(=O)c1ccc(C(C)(C)C)cc1` [Compound 6, (E)-4-(tert-butyl)-N-(oct-4-en-1-yl)benzamide], for which the EC50 in series [1] was 66 ± 1 µM; in series [2] it was greater than 100 µM. In addition, in series [3], the CC50 is greater than 200 µM.
Regarding `CCC/C=C/CCCNC(=O)c1ccc([N+](=O)[O-])cc1` [Compound 7, (E)-4-Nitro-N-(oct-4-en-1-yl)benzamide], the EC50 in series [1] was 49.8 ± 4 µM; in series [2], greater than 100 µM. Also, in series [3], the CC50 was 158 ± 37.3 µM.
With `CCCCCCCCCCCCCCCCOP(=O)([O-])OCC[N+](C)(C)C` [Miltefosine, miltefosine, reference compound], the EC50 turned out to be 5.1 ± 0.6 µM in series [1] and 6.5 ± 3 µM in series [2]. The “S.I. amastigote (selectivity index)” value in series [2] is given as 18.4. Further, the CC50 in series [3] came to 120 ± 4.2 µM.
Take `CCCCCC/C=C/CCc1ccc(O)cc1` [Gibbilimbol B, gibbilimbol B]: the EC50 in series [1] was 99.4 ± 2.1 µM. Moreover, in series [2], the “S.I. amastigote (selectivity index)” value was greater than 2.1 and the EC50 is 95.1 ± 1.5 µM. Moreover, the CC50 in series [3] is greater than 200 µM.
On to Triton X-100 [reference compound], for which the “permeabilization of the plasma membrane (Sytox Green)” value in series [5] is given as “maximum permeabilization”.
For the compound `CCC/C=C/CCCNC(=O)c1ccc(C)cc1` [Compound 2, (E)-4-Methyl-N-(oct-4-en-1-yl)benzamide], the figures for the EC50 in series [1] and in series [2] were 66.9 ± 6.4 µM and greater than 100 µM, respectively. Further, the CC50 in series [3] was greater than 200 µM.
